The text below walks through data of article PMC4579270, “Identification and Characterization of an Irreversible Inhibitor of CDK2” (Chemistry & Biology, 2015).

What all share (assay): Dundee protein kinase screen
Holding throughout (format): biochemical

One experiment addresses T1, ASK1 (Homo sapiens, UniProt Q99683).
T1 sequence (Q99683 1-1374): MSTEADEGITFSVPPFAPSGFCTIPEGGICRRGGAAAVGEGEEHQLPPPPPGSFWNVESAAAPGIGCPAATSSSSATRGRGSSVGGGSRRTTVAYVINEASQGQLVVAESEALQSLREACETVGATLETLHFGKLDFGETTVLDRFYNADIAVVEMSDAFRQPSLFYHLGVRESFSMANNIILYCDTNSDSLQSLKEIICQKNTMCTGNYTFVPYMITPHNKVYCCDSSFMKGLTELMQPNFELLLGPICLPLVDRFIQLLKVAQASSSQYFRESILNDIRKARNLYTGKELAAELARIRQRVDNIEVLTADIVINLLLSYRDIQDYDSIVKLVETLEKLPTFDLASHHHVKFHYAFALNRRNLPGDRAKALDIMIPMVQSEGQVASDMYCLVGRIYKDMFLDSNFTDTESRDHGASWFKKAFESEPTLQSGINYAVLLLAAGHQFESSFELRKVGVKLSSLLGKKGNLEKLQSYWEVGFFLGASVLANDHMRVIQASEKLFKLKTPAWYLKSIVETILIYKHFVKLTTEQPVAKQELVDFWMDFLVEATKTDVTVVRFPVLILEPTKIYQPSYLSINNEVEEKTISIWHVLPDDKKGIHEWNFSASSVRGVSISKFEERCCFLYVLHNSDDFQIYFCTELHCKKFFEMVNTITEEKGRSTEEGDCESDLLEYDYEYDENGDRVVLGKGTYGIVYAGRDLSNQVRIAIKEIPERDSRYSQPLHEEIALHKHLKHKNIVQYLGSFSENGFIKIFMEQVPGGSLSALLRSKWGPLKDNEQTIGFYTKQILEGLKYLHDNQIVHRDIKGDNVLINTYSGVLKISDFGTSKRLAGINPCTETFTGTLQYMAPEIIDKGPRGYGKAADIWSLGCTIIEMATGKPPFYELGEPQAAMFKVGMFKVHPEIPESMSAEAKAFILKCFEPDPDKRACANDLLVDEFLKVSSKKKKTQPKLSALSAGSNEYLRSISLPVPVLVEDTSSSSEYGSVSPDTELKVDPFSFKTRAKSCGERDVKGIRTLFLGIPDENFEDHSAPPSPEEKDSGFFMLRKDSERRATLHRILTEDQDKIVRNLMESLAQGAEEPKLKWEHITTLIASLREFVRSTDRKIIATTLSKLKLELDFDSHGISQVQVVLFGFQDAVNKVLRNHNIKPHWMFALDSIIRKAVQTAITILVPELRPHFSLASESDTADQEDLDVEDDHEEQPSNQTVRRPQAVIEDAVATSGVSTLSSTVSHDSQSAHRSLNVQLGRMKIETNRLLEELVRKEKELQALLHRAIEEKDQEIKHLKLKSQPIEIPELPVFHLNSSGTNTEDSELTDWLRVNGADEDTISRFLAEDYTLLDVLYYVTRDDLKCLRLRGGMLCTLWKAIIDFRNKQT
The note with it: ASK1, 1µM; read-out: %Remaining activity at 1µM NU6300. The method in brief: (§1)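 Selectivity panel of 131 protein kinases, inhibitor tested at a single concentration of 1 µM; values are % kinase activity remaining, mean of duplicates. Re-test of selected kinases used 0.5 µM in the standard format and again after a 4 hour pre-incubation with the inhibitor.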

Another experiment deals with BRSK1 (Homo sapiens, UniProt Q8TDC3). The note with it: BRSK1, 1µM; read-out: %Remaining activity at 1µM NU6300. The method in brief:
as §1

A further experiment has as its target MKK6 (Homo sapiens, UniProt P52564). The note with it: MKK6, 1µM; read-out: %Remaining activity at 1µM NU6300. The method in brief:
as §1

The target of another experiment is PKCζ (Homo sapiens, UniProt Q05513). The note with it: read-out: %Remaining activity at 1µM NU6300. In outline: as §1
Sequence of PKCζ (Q05513 whole entry): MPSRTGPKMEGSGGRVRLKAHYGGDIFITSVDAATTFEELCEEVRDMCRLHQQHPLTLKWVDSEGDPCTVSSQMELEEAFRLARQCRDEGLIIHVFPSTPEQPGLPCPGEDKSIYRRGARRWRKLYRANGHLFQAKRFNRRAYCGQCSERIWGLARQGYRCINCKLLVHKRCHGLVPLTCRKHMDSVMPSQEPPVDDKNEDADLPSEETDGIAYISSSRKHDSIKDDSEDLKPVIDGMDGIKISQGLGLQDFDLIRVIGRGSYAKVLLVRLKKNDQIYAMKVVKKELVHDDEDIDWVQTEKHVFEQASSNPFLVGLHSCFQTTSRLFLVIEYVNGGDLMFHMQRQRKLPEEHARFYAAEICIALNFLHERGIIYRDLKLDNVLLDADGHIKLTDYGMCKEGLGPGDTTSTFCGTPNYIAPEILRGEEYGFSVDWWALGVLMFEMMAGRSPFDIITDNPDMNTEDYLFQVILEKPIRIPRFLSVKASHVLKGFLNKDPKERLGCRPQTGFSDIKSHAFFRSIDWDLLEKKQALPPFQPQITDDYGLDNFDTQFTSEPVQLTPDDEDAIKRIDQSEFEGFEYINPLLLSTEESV
Another experiment deals with TTBK1 (Homo sapiens, UniProt Q5TCY1). The note with it: TTBK1, 1µM; read-out: %Remaining activity at 1µM NU6300. The method in brief:
as §1

The target of another experiment is TrkA (Homo sapiens, UniProt P04629). The note with it: read-out: %Remaining activity at 1µM NU6300. In outline: as §1
Sequence of TrkA (P04629 33-796): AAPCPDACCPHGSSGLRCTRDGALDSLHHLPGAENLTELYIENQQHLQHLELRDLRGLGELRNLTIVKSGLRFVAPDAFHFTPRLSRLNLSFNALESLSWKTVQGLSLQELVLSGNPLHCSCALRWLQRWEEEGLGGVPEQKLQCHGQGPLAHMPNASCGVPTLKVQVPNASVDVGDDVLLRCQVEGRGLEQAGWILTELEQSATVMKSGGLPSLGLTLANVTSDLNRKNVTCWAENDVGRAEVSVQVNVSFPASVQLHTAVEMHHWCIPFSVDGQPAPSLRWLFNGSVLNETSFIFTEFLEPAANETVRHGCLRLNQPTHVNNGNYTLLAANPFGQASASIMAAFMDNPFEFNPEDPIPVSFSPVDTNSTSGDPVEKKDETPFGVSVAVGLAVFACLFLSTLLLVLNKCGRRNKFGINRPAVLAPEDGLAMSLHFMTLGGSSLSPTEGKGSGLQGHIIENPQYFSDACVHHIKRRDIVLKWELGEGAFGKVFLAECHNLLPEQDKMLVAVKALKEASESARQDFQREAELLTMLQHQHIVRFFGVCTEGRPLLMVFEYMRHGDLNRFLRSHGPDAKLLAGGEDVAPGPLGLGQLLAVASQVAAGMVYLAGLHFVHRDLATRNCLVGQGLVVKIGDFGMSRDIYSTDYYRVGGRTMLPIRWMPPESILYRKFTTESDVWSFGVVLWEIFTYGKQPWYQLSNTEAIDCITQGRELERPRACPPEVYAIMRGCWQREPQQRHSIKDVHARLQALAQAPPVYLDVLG

Structures are written as SMILES.

Sequence of BRSK1 (Q8TDC3 whole entry): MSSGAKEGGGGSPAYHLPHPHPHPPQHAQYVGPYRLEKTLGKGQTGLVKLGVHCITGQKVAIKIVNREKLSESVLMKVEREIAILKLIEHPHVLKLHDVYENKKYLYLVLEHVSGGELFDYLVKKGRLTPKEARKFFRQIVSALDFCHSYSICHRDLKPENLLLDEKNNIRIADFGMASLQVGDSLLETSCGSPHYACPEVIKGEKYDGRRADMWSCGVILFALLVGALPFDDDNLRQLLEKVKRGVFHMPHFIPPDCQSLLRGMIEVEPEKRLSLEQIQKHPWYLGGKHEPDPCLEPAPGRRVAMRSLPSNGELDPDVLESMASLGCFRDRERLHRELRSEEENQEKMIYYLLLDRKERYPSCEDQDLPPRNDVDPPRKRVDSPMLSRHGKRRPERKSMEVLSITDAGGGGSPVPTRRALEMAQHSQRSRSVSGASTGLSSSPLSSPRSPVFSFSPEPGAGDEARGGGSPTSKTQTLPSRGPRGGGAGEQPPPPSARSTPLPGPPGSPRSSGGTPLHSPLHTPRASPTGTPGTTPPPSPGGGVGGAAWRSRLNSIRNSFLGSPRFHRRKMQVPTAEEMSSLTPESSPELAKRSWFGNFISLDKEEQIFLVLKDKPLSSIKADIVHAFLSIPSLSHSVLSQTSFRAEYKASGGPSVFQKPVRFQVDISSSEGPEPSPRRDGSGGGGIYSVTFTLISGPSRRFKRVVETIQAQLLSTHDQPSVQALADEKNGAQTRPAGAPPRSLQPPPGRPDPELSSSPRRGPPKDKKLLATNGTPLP
Sequence of MKK6 (P52564 whole entry): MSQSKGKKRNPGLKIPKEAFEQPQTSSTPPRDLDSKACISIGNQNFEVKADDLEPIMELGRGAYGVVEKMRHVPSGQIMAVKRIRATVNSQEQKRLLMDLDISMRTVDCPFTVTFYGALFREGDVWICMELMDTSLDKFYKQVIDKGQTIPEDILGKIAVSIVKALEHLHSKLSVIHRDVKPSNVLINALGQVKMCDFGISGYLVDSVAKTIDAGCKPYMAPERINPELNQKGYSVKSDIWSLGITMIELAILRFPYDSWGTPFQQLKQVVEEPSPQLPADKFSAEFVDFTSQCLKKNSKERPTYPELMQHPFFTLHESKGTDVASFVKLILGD
Sequence of TTBK1 (Q5TCY1 whole entry): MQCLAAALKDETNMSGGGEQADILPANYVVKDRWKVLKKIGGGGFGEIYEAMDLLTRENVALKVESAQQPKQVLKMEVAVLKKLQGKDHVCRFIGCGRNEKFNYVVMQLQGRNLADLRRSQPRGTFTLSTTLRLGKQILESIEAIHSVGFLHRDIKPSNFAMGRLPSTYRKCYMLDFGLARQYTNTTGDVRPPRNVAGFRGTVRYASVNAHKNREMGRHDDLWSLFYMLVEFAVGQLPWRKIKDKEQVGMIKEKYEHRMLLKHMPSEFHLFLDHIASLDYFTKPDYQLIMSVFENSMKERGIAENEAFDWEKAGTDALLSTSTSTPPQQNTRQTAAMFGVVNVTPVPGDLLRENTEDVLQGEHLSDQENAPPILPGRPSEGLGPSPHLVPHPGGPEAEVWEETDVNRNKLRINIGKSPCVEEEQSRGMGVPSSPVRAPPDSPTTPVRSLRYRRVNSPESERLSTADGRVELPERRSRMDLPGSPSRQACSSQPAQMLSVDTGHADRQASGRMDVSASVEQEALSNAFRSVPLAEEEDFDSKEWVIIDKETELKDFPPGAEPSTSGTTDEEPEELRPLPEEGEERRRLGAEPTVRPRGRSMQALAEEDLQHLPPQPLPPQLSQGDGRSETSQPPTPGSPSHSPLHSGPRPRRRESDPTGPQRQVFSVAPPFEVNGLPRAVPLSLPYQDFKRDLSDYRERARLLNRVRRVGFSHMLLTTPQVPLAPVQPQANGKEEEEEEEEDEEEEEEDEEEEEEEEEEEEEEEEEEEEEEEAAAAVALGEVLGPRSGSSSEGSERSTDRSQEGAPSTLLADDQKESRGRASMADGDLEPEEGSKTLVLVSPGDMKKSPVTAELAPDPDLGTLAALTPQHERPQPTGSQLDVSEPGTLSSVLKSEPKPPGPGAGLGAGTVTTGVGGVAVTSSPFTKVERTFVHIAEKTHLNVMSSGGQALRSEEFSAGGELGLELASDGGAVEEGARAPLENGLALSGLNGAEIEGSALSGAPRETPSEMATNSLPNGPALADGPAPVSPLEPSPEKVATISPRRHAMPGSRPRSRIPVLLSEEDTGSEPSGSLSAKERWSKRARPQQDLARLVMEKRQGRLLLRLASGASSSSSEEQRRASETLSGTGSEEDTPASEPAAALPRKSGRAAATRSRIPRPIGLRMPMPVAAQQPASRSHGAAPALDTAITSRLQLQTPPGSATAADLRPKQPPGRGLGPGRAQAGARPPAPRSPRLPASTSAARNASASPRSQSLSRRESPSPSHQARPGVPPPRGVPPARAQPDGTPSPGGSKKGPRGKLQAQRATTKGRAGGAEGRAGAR

For the compound `C=CS(=O)(=O)c1ccc(Nc2nc(OCC3CCCCC3)c3nc[nH]c3n2)cc1` [NU6300, 6-(cyclohexylmethoxy)-N-(4-(vinylsulfonyl)phenyl)-9H-purin-2-amine], the remaining activity at 1 µM on ASK1 was 49%; at BRSK1, 79%; at MKK6, 85%; at PKCζ, 100%; at TTBK1, 83%; at TrkA, 59%.

By remaining activity is commonly meant what remains of the control signal, in per cent.
